Experimental data published in patent US20240350497A1, “COMBINATION THERAPY FOR THE TREATMENT OF PAN-KRAS MUTATED CANCERS” (Tiziana Life Sciences PLC, priority 2021, published 2024).
Like-named read-outs stand apart in the source and are kept apart here.

Tests used:
[1] = test system: KRAS mutant tumor xenografts; test: KRAS mutant tumor xenografts treated with CDK inhibitor in vivo; parameters: species or system mice
Excerpt: FIG. 8A is a plot showing the change in tumor volume of KRAS mutant tumor xenografts in mice treated with vehicle control (DMSO) or the CDK inhibitor AZD5438.
FIG. 8B is a plot showing the percent survival of mice harboring KRAS mutant tumor xenografts following treatment with either vehicle control (DMSO) or the CDK inhibitor AZD5438. FIG. 8C is a chart showing the tumor weight in mice harboring KRAS mutant tumor xenografts following treatment with either vehicle control (DMSO) or the CDK inhibitor AZD5438. FIG. 8D is a series of images showing tumor shrinkage in mice harboring KRAS mutant tumor xenografts following treatment with the CDK inhibitor AZD5438.
(§1) The cyclin-dependent kinase, CDK1, is a synthetic lethal target for KRAS mutant tumors. KRAS mutant cells show increased activity of CDK1 (FIGS. 6A-6D). The inhibition of CDK1 causes a reduction in the S-phase of the cell cycle progression decreasing cell proliferation in KRAS mutant cells. This decreased cell cycle activity is observed by the modulation of Rb, a master control of the G1/S checkpoint. Through a series of experiments, including using parallel siRNA screens in KRAS mutant and wild type colorectal isogenic tumor cells and subsequently validated in a genetically diverse panel of 26 colorectal and pancreatic tumor cell models, the KRAS/CDK1 interaction has a synthetic lethal effect on cancer cells.

[2] = test system: BX-PC3 human pancreatic carcinoma; test: milciclib in combination with gemcitabine, BX-PC3 human pancreatic carcinoma, first experiment; conditions: for animal deaths: single agents at the tested doses
Protocol: A combination therapy of milciclib and the DNA damaging agent, gemcitabine, was treated on BX-PC3 human pancreatic carcinoma (FIG. 12A).

[3] = test system: BX-PC3 human pancreatic carcinoma; test: milciclib in combination with gemcitabine, BX-PC3 human pancreatic carcinoma, second experiment; conditions: for animal deaths: single agents at the tested doses
Protocol: A second experiment was conducted of milciclib in combination with gemcitabine on BX-PC3 human pancreatic carcinoma (FIG. 12B and FIG. 12C).

[4] = test system: NSCLC; conditions: single agent, Phase II studies; cited from earlier work
[5] = test system: N-592 human small cell carcinoma; conditions: for animal deaths: single agents at the tested doses
Protocol: Milciclib was tested orally at the doses of 20 and 30 mg/kg twice a day for 17 consecutive days.

[6] = test system: HCT-116 human colon carcinoma; test: milciclib in combination with irinotecan, HCT-116 human colon carcinoma xenograft model; conditions: for animal deaths: single agents at the tested doses
Protocol: (§2) The efficacy of milciclib was tested in several human xenografts implanted in the hind flank region of athymic mice (FIG. 18). Models in nude mice included A2780 ovarian cancer, DU-145 prostatic cancer, BX-PC3 pancreatic cancer, A549 non-small cell lung cancer, MDA-MB-231 breast cancer, MIA-PACA-2 pancreatic cancer, A375 melanoma, CAPAN-1 pancreatic cancer, and HCT-116 colon cancer. The MIA-PACA-2 and CAPAN-1 pancreatic cancer cell lines both express KRAS mutants. The MIA-PACA-2 and CAPAN-1 cell lines tested with milciclib harbor the KRAS mutants, G12C and G12V, respectively. […] The HCT-116 colon cancer cell line expresses the G13D KRAS mutant, making up of 15.5% of CRC KRAS mutants Following implantation, tumors were allowed to establish to a size of 100 mm3 prior to oral administration of milciclib. In all these experiments, a daily bid treatment was administered for a maximum of 10 days.
Topoisomerase enzymes control the manipulation of the structure of DNA necessary for replication.

[7] = test system: cell lines harboring KRAS mutations; test: sensitivity of KRAS mutant cell lines to CDK inhibitor in vitro; type: cell-based
Excerpt: as §1, with “FIG. 7A and FIG. 7B are plots showing dose-response curves of colorectal non-isogenic cells containing either wild type (WT) or mutated KRAS in response to CDK inhibitors AT7519 (FIG. 7A) or dinaciclib (FIG. 7B). The cyclin-dependent” for “The cyclin-dependent”

[8] = test system: HCT-116 human colon carcinoma; test: milciclib in combination with 5-FU, HCT-116 human colon carcinoma xenograft; conditions: for animal deaths: single agents at the tested doses
Protocol: as §2
Activity of milciclib has been tested in combination with 5-FU on HCT-116 human colon carcinoma cells (FIG. 10A). The HCT-116 cell line expresses the KRAS G13D mutant.

[9] = test system: A2780 human ovarian carcinoma; test: A2780 human ovarian carcinoma xenografts, oral milciclib; type: in vivo, mice
Protocol: Pathogenic KRAS mutations were present in 606 patients of 7,325 epithelial ovarian cancers from the Caris Database, about 8.3% of the total. The frequency of KRAS mutation by subtype occurred in the following: 36.4% G12D, 35.8% G12V, and 8.4% G12C. A dose-dependent inhibition of tumor growth was measured in mice harboring A2780 human ovarian carcinoma xenografts administered with daily oral administration of milciclib.

[10] = test system: MIA-PACA-2 pancreatic cancer (KRAS G12C); test: human xenograft efficacy, MIA-PACA-2; type: in vivo, athymic mice; conditions: oral, daily bid treatment for a maximum of 10 days
[11] = test system: CAPAN-1 pancreatic cancer (KRAS G12V); test: human xenograft efficacy, CAPAN-1; type: in vivo, athymic mice; conditions: oral, daily bid treatment for a maximum of 10 days
[12] = test system: KRAS G12D LA2 pulmonary cancerous lesions; test: transgenic mouse model KRAS G12D LA2, MRI; conditions: in vivo
Protocol: Milciclib was tested in a transgenic mouse model KRAS G12D LA2 that develops pulmonary cancerous lesions reminiscent of human lung adenocarcinomas. Milciclib was tested to follow longitudinal disease progression and evaluate therapeutic efficacy by using magnetic resonance imaging (MRI) and positron emission tomography (PET). […] The MRI methodology used in this study allow longitudinal monitoring of tumor development and response in a single animal, and furthermore, allows for more clinically relevant study design and increases its statistical relevance.

[13] = test system: MDA-MB-231 human breast cancer
Protocol: FIG. 15A is a series of plots showing change in tumor volume in mice bearing MDA-MB-231 human breast cancer tumor xenografts following treatment with 40 mg/kg milciclib (PHA-848125) (n=8) or vehicle control (5% glucose solution) (n=8) via oral gavage twice daily on a 5-days-on/2-days-off schedule for four weeks. FIG. 15B is a series of images and a chart showing immunohistochemistry staining of Ki67 and mitotic nucleus counts, and corresponding quantification in tumor tissue collected 48 hours after the last treatment with milciclib (PHA-848125) or vehicle control for 3 weeks.

[14] = test system: MDA-MB-231 cells; test: MDA-MB-231 cells exposed to milciclib and DNA damaging agent, alone or in combination; type: cell-based, human; conditions: TNBC cells
Protocol: The use of milciclib in combination with five chemotherapeutic drugs already in use was tested for the treatment of TNBC including paclitaxel, doxorubicin, 5-FU, cisplatin, and cyclophosphamide. Potential synergistic effects with milciclib by exposing MDA-MB-231 cells to serial dilutions of milciclib and each DNA damaging agent, alone or in combination, in clinically relevant concentrations (FIG. 16A). […] Tumor proliferation was reduced by nearly 5 times for the combination treatment of milciclib and cisplatin compared to the vehicle treated group, assessed by Ki67 staining.

[15] = test system: advanced solid malignancies; conditions: oral, phase I; cited from earlier work
[16] = milciclib 20 mg/kg orally twice a day for 9 consecutive days
[17] = milciclib 40 mg/kg orally twice a day for 9 consecutive days

Compound: Cc1ncc(-c2ccnc(Nc3ccc(S(C)(=O)=O)cc3)n2)n1C(C)C [AZD5438]
- sensitivity of KRAS mutant tumors [1]: increased sensitivity

Compound: Nc1ccn([C@@H]2O[C@H](CO)[C@@H](O)C2(F)F)c(=O)n1 [gemcitabine, reference compound]
- TGI ([2]; gemcitabine 80 mg/kg IV): 61%
- animal deaths [2]: No animal died
- TGI ([3]; gemcitabine 80 mg/kg IV q4dx3): 70%
- TGI ([3]; gemcitabine 80 mg/kg IV q7dx3): 62%
- animal deaths [3]: No animal died
- median survival [4]: 9 months
- objective response rate [4]: 20-25%

Compound: CC[C@@]1(O)C(=O)OCc2c1cc1n(c2=O)Cc2cc3c(CN(C)C)c(O)ccc3nc2-1 [topotecan, reference compound]
- animal deaths [5]: No animal died
- TGI ([5]; topotecan 6 mg/kg IV q4dx5): 71%

Compound: CCc1c2c(nc3ccc(OC(=O)N4CCC(N5CCCCC5)CC4)cc13)-c1cc3c(c(=O)n1C2)COC(=O)[C@]3(O)CC [irinotecan, reference compound]
- TGI ([6]; irinotecan 45 mg/kg IV q4dx3): 84%
- animal deaths [6]: No animal died

Compound: O=C(NC1CCNCC1)c1[nH]ncc1NC(=O)c1c(Cl)cccc1Cl [AT519]
- sensitivity of KRAS mutant versus wild type cells [7]: increased sensitivity

Compound: O=c1[nH]cc(F)c(=O)[nH]1 [Compound 5-FU, 5-fluorouracil, reference compound]
- TGI ([8]; 5-FU 50 mg/kg IV q7dx2): 33%
- animal deaths [8]: No animal died

Compound: CNC(=O)c1nn(C)c2c1C(C)(C)Cc1cnc(Nc3ccc(N4CCN(C)CC4)cc3)nc1-2 [milciclib, N,1,4,4-tetramethyl-8-((4-(4-methylpiperazin-1-yl)phenyl)amino)-4,5-dihydro-1H-pyrazolo[4,3-h]quinazoline-3-carboxamide]
- TGI ([8]; milciclib 20 mg/kg orally twice a day for 12 days): 42%
- TGI ([8]; milciclib 30 mg/kg orally twice a day for 12 days): 64%
- animal deaths [8]: No animal died
- TGI ([6]; milciclib 20 mg/Kg orally twice a day for 9 days): 38%
- TGI ([6]; milciclib 30 mg/Kg orally twice a day for 9 days): 60%
- animal deaths [6]: No animal died
- TGI [2, 16]: 61%
- TGI [2, 17]: 79%
- animal deaths [2]: No animal died
- TGI [3, 16]: 74%
- TGI ([3]; milciclib 20 mg/kg twice a day for 15 days): 80%
- TGI [3, 17]: 88%
- animal deaths [3]: No animal died
- tumor growth inhibition (TGI) ([9]; 20 mg/kg bid): 53%
- tumor growth inhibition (TGI) ([9]; 30 mg/kg bid): 76%
- tumor growth inhibition (TGI) ([9]; 40 mg/kg bid): 91%
- maximal inhibition [10]: 70%
- maximal inhibition [11]: 65%
- tumor growth inhibition at the end of treatment, measured by MRI [12]: significant tumor growth inhibition
- tumor growth ([13]; 40 mg/kg oral gavage twice daily, 5-days-on/2-days-off): arrests tumor growth
- tolerability ([13]; mouse, in vivo): well tolerated
- interaction with cisplatin, cisplatin-induced apoptosis [14]: acts synergistically
- TGI ([5]; milciclib 20 mg/kg orally twice a day for 17 consecutive days): 34%
- TGI ([5]; milciclib 30 mg/kg orally twice a day for 17 consecutive days): 56%
- animal deaths [5]: No animal died
- RP2D [15]: 150 mg/day
- tolerability [15]: well-tolerated
